# Source: US5140014A (Abbott Laboratories, priority 1989, dated 1992)
# Like-named read-outs stand apart in the source and are kept apart here.
# Assays:
# Assay in all cases: in vitro antibacterial activity, agar dilution method (MIC)
# Format in all cases: cell-based
# Escherichia Coli = details: BHI agar, 20-24 hours
# Method: (§1) Compounds 1 to 8 were evaluated for antibacterial activity by the agar dilution method to determine the degree of in vitro susceptibility of aerobic microorganisms to antimicrobial agents. The test medium was Brain Heart Infusion (BHI) agar. The antibacterial agent was dissolved at a concentration of 2,000 ug/mL. Test plates were then prepared, usually 12 two-fold dilutions. After adding the sample to the plates, 10 mL of cooled BHI agar medium was added to each plate. The organisms were grown overnight in BHI broth (Difco) in a 35°-37° C. incubator.
# (§2) On the day of testing, the bacterial suspensions were diluted 1:100 in sterile distilled water, except for a few slow-growing organisms (usually Micrococcus and Streptococcus) which were diluted 1:10. The plate was then inoculated with approximately 10^4 organisms. This was incubated in a 35°-37° C. incubator for 20-24 hours. Thereafter, the plates were read to determine the minimum inhibitory concentration (MIC) defined as the lowest concentration of drug yielding no growth on the plate, a slight haze, or sparsely isolated colonies on the inoculum spot as compared to the growth control.
# Pseudomonas Cepacia = details: strain 296I, BHI agar, 20-24 hours
# Method: as §1, §2
# Providencia Stuartii = details: strain CMX 640, BHI agar, 20-24 hours
# Method: (§3) The test medium was Brain Heart Infusion (BHI) agar. The antibacterial agent was dissolved at a concentration of 2,000 ug/mL. Test plates were then prepared, usually 12 two-fold dilutions. After adding the sample to the plates, 10 mL of cooled BHI agar medium was added to each plate. The organisms were grown overnight in BHI broth (Difco) in a 35°-37° C. incubator.
# as §2
# Staphylococcus Aureus = tested on: Staphylococcus Aureus
# Method: as §3, §2
# Acinetobacter Sp = details: strain CMX 669, BHI agar, 20-24 hours
# Method: as §3, §2
# Enterococcus Faecium = details: BHI agar, 20-24 hours
# Method: as §3, §2
# Streptococcus Agalactiae = details: strain CMX 508, BHI agar, 20-24 hours
# Method: as §3, §2
# Klebsiella Pneumoniae = details: BHI agar, 20-24 hours
# Method: as §3, §2
# Streptococcus Pyogenes = tested on: Streptococcus Pyogenes
# Method: as §3, §2
# Micrococcus Luteus = tested on: Micrococcus Luteus
# Method: as §3, §2
# Haemophilus Influenzae = details: BHI agar, 20-24 hours
# Method: as §3, §2
# Enterobacter Aerogenes = details: BHI agar, 20-24 hours
# Method: as §3, §2
# Pseudomonas Aeruginosa = details: BHI agar, 20-24 hours
# Method: as §3, §2
# [1] = tested on: Staphylococcus Epidermidis; details: strain 3519, BHI agar, 20-24 hours
# Method: as §3, §2
# Streptococcus Bovis = details: Streptococcus equinus, strain A5169; BHI agar, 20-24 hours
# Method: as §3, §2
# [2] = Haemophilus influenzae, strain 519A, read-out: MIC
# [3] = Haemophilus influenzae, strain 751, read-out: MIC
# [4] = Haemophilus influenzae, strain 1435, read-out: MIC
smiles,measurement,setting,value
"CCC1OC(=O)CC(O)C(C)C(OC2OC(C)CC(N(C)C)C2O)C(CC=O)CC(C)C(N(C)C)C=CC2(C)OC2C1C (stereo not drawn) [Example 1, [9R]-9-Deoxo-9-N,N-dimethylamino-rosaramicin]",MIC,"Escherichia Coli; Escherichia coli, strain DC-2, read-out: MIC",3.1 mg/L
same,MIC,"Escherichia Coli; Escherichia coli, strain H560, read-out: MIC",0.78 mg/L
same,MIC,"Escherichia Coli; Escherichia coli, strain JUHL, read-out: MIC",6.2 mg/L
same,MIC,"Escherichia Coli; Escherichia coli, strain KNK 437, read-out: MIC",6.2 mg/L
same,MIC,"Escherichia Coli; Escherichia coli, strain SS, read-out: MIC",0.1 mg/L
same,MIC,"Pseudomonas Cepacia; Burkholderia cepacia, read-out: MIC",100 mg/L
same,MIC,"Providencia Stuartii; Providencia stuartii, read-out: MIC",> 100 mg/L
same,MIC,"Staphylococcus Aureus; Staphylococcus aureus, ATCC6538P",0.78 mg/L
same,MIC,"Staphylococcus Aureus; Staphylococcus aureus, NCTC10649, strain NCTC 10649, BHI agar, 20-24 hours, read-out: MIC",0.78 mg/L
same,MIC,"Staphylococcus Aureus; Staphylococcus aureus, strain 45, BHI agar, 20-24 hours, read-out: MIC",0.78 mg/L
same,MIC,"Staphylococcus Aureus; Staphylococcus aureus, strain 45 RAR2, BHI agar, 20-24 hours, read-out: MIC",0.78 mg/L
same,MIC,"Staphylococcus Aureus; Staphylococcus aureus, strain 642A, BHI agar, 20-24 hours, read-out: MIC",0.78 mg/L
same,MIC,"Staphylococcus Aureus; Staphylococcus aureus, strain A5177, BHI agar, 20-24 hours, read-out: MIC",1.56 mg/L
same,MIC,"Staphylococcus Aureus; Staphylococcus aureus, strain CMX 553, BHI agar, 20-24 hours, read-out: MIC",0.78 mg/L
same,MIC,"Acinetobacter Sp; Acinetobacter, read-out: MIC",1.56 mg/L
same,MIC,"Enterococcus Faecium; Enterococcus faecium, ATCC8043, strain ATCC 8043, read-out: MIC",0.39 mg/L
same,MIC,"Streptococcus Agalactiae; Streptococcus agalactiae, read-out: MIC",0.1 mg/L
same,MIC,"Klebsiella Pneumoniae; Klebsiella pneumoniae, ATCC8045, strain ATCC 8045, read-out: MIC",12.5 mg/L
same,MIC,Streptococcus Pyogenes; Streptococcus pyogenes,0.05 mg/L
same,MIC,"Streptococcus Pyogenes; Streptococcus pyogenes, strain 930 CONST, BHI agar, 20-24 hours, read-out: MIC",> 100 mg/L
same,MIC,"Streptococcus Pyogenes; Streptococcus pyogenes, strain 2548 INDUC, BHI agar, 20-24 hours, read-out: MIC",0.39 mg/L
same,MIC,"Micrococcus Luteus; Micrococcus luteus, ATCC4698, strain ATCC 4698, BHI agar, 20-24 hours, read-out: MIC",0.2 mg/L
same,MIC,"Micrococcus Luteus; Micrococcus luteus, ATCC9341",0.1 mg/L
same,MIC,"Haemophilus Influenzae; Haemophilus influenzae, ATCC9795, strain ATCC 9795",1 mg/L
same,MIC,"Haemophilus Influenzae; Haemophilus influenzae, ATCC10211, strain ATCC 10211",1 mg/L
same,MIC,"Haemophilus Influenzae; Haemophilus influenzae, ATCC19418, strain ATCC 19418",1 mg/L
same,MIC,"Haemophilus Influenzae; Haemophilus influenzae, ATCC43095, strain ATCC 43095, read-out: MIC",0.25 mg/L
same,MIC,"Haemophilus Influenzae; Haemophilus influenzae, strain 503B",1 mg/L
same,MIC,"Haemophilus Influenzae; Haemophilus influenzae, strain 504",1 mg/L
same,MIC,Haemophilus Influenzae; [2],0.5 mg/L
same,MIC,"Haemophilus Influenzae; Haemophilus influenzae, strain 566A, read-out: MIC",2 mg/L
same,MIC,"Haemophilus Influenzae; Haemophilus influenzae, strain 588A",1 mg/L
same,MIC,"Haemophilus Influenzae; Haemophilus influenzae, strain 632A",1 mg/L
same,MIC,"Haemophilus Influenzae; Haemophilus influenzae, strain 667A",1 mg/L
same,MIC,"Haemophilus Influenzae; Haemophilus influenzae, strain 747C",1 mg/L
same,MIC,Haemophilus Influenzae; [3],2 mg/L
same,MIC,"Haemophilus Influenzae; Haemophilus influenzae, strain 1177, read-out: MIC",0.06 mg/L
same,MIC,Haemophilus Influenzae; [4],0.5 mg/L
same,MIC,"Haemophilus Influenzae; Haemophilus influenzae, strain DILL AMP R",1 mg/L
same,MIC,"Haemophilus Influenzae; Haemophilus influenzae, strain SOL AMP R",1 mg/L
same,MIC,"Haemophilus Influenzae; Haemophilus influenzae, strain SPK AMP R",1 mg/L
same,MIC,"Enterobacter Aerogenes; Klebsiella aerogenes, ATCC13048, strain ATCC 13048, read-out: MIC",6.2 mg/L
same,MIC,"Pseudomonas Aeruginosa; Pseudomonas aeruginosa, strain A5007, read-out: MIC",> 100 mg/L
same,MIC,"Pseudomonas Aeruginosa; Pseudomonas aeruginosa, strain BMH10, read-out: MIC",50 mg/L
same,MIC,"Pseudomonas Aeruginosa; Pseudomonas aeruginosa, strain K799/61, read-out: MIC",0.78 mg/L
same,MIC,"Pseudomonas Aeruginosa; Pseudomonas aeruginosa, strain K799/WT, read-out: MIC",50 mg/L
same,MIC,"[1]; Staphylococcus epidermidis, read-out: MIC",0.78 mg/L
same,MIC,Streptococcus Bovis,0.05 mg/L
"CCC1OC(=O)CC(O)C(C)C(OC2OC(C)CC(N(C)C)C2O)C(CC=O)CC(C)C(N(C)C)CCC2(C)OC2C1C (stereo not drawn) [Example 3, [9S]-9-Deoxo-10,11-dihydro-9-N,N-dimethylamino-rosaramicin]",MIC,Escherichia Coli; strain DC-2,6.2 mg/L
same,MIC,Escherichia Coli; strain SS,0.1 mg/L
same,MIC,Pseudomonas Cepacia,> 100 mg/L
same,MIC,Providencia Stuartii,> 100 mg/L
same,MIC,"Staphylococcus Aureus; strain 45, BHI agar, 20-24 hours",0.78 mg/L
same,MIC,"Staphylococcus Aureus; strain 45 RAR2, BHI agar, 20-24 hours",1.56 mg/L
same,MIC,"Staphylococcus Aureus; strain 642A, BHI agar, 20-24 hours",1.56 mg/L
same,MIC,"Staphylococcus Aureus; strain A5177, BHI agar, 20-24 hours",0.78 mg/L
same,MIC,"Staphylococcus Aureus; strain ATCC 6538P, BHI agar, 20-24 hours",1.56 mg/L
same,MIC,"Staphylococcus Aureus; strain CMX 553, BHI agar, 20-24 hours",1.56 mg/L
same,MIC,"Staphylococcus Aureus; strain NCTC 10649, BHI agar, 20-24 hours",0.78 mg/L
same,MIC,Acinetobacter Sp,3.1 mg/L
same,MIC,Enterococcus Faecium; strain ATCC 8043,0.78 mg/L
same,MIC,Streptococcus Agalactiae,0.2 mg/L
same,MIC,Klebsiella Pneumoniae; strain ATCC 8045,6.2 mg/L
same,MIC,"Streptococcus Pyogenes; strain 930 CONST, BHI agar, 20-24 hours",> 100 mg/L
same,MIC,"Streptococcus Pyogenes; strain 2548 INDUC, BHI agar, 20-24 hours",0.78 mg/L
same,MIC,"Streptococcus Pyogenes; strain EES61, BHI agar, 20-24 hours",0.1 mg/L
same,MIC,"Micrococcus Luteus; Micrococcus luteus, ATCC9341",0.2 mg/L
same,MIC,"Micrococcus Luteus; strain ATCC 4698, BHI agar, 20-24 hours",0.39 mg/L
same,MIC,Haemophilus Influenzae; [2],0.25 mg/L
same,MIC,Haemophilus Influenzae; [3],4 mg/L
same,MIC,Haemophilus Influenzae; [4],0.5 mg/L
same,MIC,"Haemophilus Influenzae; Haemophilus influenzae, strain DILL AMP R, read-out: MIC",0.5 mg/L
same,MIC,Haemophilus Influenzae; strain 503B,0.5 mg/L
same,MIC,Haemophilus Influenzae; strain 504,0.5 mg/L
same,MIC,Haemophilus Influenzae; strain 566A,1 mg/L
same,MIC,Haemophilus Influenzae; strain 588A,1 mg/L
same,MIC,Haemophilus Influenzae; strain 632A,1 mg/L
same,MIC,Haemophilus Influenzae; strain 667A,0.5 mg/L
same,MIC,Haemophilus Influenzae; strain 747C,1 mg/L
same,MIC,Haemophilus Influenzae; strain 1177,0.12 mg/L
same,MIC,Haemophilus Influenzae; strain ATCC 9795,1 mg/L
same,MIC,Haemophilus Influenzae; strain ATCC 10211,0.5 mg/L
same,MIC,Haemophilus Influenzae; strain ATCC 19418,1 mg/L
same,MIC,Haemophilus Influenzae; strain ATCC 43095,1 mg/L
same,MIC,Haemophilus Influenzae; strain SOL AMP R,1 mg/L
same,MIC,Haemophilus Influenzae; strain SPK AMP R,0.25 mg/L
same,MIC,Enterobacter Aerogenes; strain ATCC 13048,12.5 mg/L
same,MIC,Pseudomonas Aeruginosa; strain A5007,> 100 mg/L
same,MIC,Pseudomonas Aeruginosa; strain BMH10,100 mg/L
same,MIC,Pseudomonas Aeruginosa; strain K799/61,0.78 mg/L
same,MIC,Pseudomonas Aeruginosa; strain K799/WT,100 mg/L
same,MIC,[1],1.56 mg/L
same,MIC,Streptococcus Bovis,0.05 mg/L
